These results are taken from patent US8933106B2, “2-(4-substituted phenylamino) polysubstituted pyridine compounds as inhibitors of non-nucleoside HIV reverse transcriptase, preparation methods and uses thereof” (Institute of Pharmacology and Toxicology Academy of …, priority 2008, dated 2015).

Converted amounts (≈) assume the structure as drawn. Some results are limits rather than exact numbers.

One data set relates to HIV-1IIIB virus strain. Briefly: Anti-HIV activity test (MT-2 cell model), p24 antigen ELISA. The note with it: MT-2 cells; for EC50: Human immunodeficiency virus 1, MT2, HIV-1IIIB, 4th day, p24 antigen; for SI(CC50/EC50): ratio of toxicity CC50 value to activity EC50 value. Type of data set: cell-based. On the procedure:
Please refer to the document (Jiang, S., et al. Antimicrob. Agents Chemother. 2004, 48, 4349-4359). In a 96-pore cell culture plate, 50 μl of different concentrations of compound solutions were respectively mixed with equal-volume of HIV-1IIIB virus strain (100 TCID50), and incubated at 37° C. for 30 min, and then 100 μl MT-2 cell (1×10^5/mL, RPIM 1640 culture medium containing 10% serum) was added, and mixed homogenously, followed by incubation at 37° C. overnight. On the second day, 150 μl of the supernatant was sucked out, and equal-volume of fresh culture medium was replenished, followed by further incubation at 37° C. for 3 days. On the 4th day, cytopathic effect (CPE) was recorded. Thereafter, 100 μl of culture supernatant was sucked out, virus particles were split using 5% Triton X-100, and p24 antigen therein was tested by using ELISA assay. Briefly, a ELISA plate was coated with HIVIG (2 μg/mL), and blocked with 1% fat-free milk, then a virus lysate was added therein, followed by incubation at 37° C. for 60 min. After fully washing the plate, anti-p24 monoclonal antibody-183-12H-5C, biotin-labeled goat antimouse antibody and […]-labeled horseradish peroxidase were added in sequence. Then, after developing with TMB, OD was tested at 450 nm. The 50% effective concentration (EC50) of the compound was calculated using CalcuSyn software.

A short description of data set [1]: Cytotoxicity test of the compound (MT-2 cells, XTT). Type of data set: cell-based. The note with it: human, 4th day. On the procedure:
Please refer to the document (Jiang, S., et al. Antimicrob. Agents Chemother. 2004, 48, 4349-4359). In a 96-pore cell culture plate, 50 μl of different concentrations of compound solutions were respectively mixed with equal-volume of PBS, and incubated at 37° C. for 30 min, and then 100 μl MT-2 (or H9) cells (1×10^5/mL, RPIM 1640 culture medium containing 10% serum) was added, and mixed homogenously, followed by incubation at 37° C. overnight. On the second day, 150 μl of the supernatant was sucked out, and equal-volume of fresh culture medium was replenished, followed by further incubation at 37° C. for 3 days. On the 4th day, 50 μl of a XTT solution (1 mg/mL) containing PMS as freshly prepared was added. After 4 h, OD at 450 nm was tested. The 50% cytotoxicity concentration (CC50) of the compound was calculated using CalcuSyn software.

In turn, `Cc1cc(C#CC2CC2)cc(C)c1Oc1ccc(N)c(Nc2ccc(C#N)cc2)n1` [Compound I-21, 3-amino-2-(4-cyanophenylamino)-6-(2,6-dimethyl-4-(cyclopropylethynyl)phenoxy)pyridine] registered a melting point of 82 to 85 °C.

In the case of `Cc1cc(CO)cc(C)c1Oc1ccc([N+](=O)[O-])c(Nc2ccc(C#N)cc2)n1` [Compound I-8, 2-(4-cyanophenylamino)-6-(2,6-dimethyl-4-hydroxymethylphenoxy)-3-nitropyridine], in the data set with HIV-1IIIB virus strain, the EC50 worked out at 0.075 µg/mL (≈ 0.192 µM) and the “SI(CC50/EC50)” value was 602. The CC50 at 4 days in data set [1] stood at 45.2 µg/mL (≈ 116 µM).

As to `Cc1cc(C(O)C[N+](=O)[O-])cc(C)c1Oc1ccc([N+](=O)[O-])c(Nc2ccc(C#N)cc2)n1` (centres unmarked) [Compound I-14, 2-(4-cyanophenylamino)-6-(2,6-dimethyl-4-(1-hydroxy-2-nitroethyl)phenoxy)-3-nitropyridine], the melting point fell in the range of 230 to 234 °C. In addition, in the data set with HIV-1IIIB virus strain, the concentration giving a half-maximal response (EC50) turned out to be 0.77 µg/mL (≈ 1.71 µM) and the “SI(CC50/EC50)” value came to 16. In data set [1], this compound returned a CC50 at 4 days of 12.2 µg/mL (≈ 27 µM).

Consider `N#Cc1ccc(Nc2nc(Oc3c(Br)cc(CO)cc3Br)ccc2[N+](=O)[O-])cc1` [Compound I-28, 2-(4-cyanophenylamino)-6-(2,6-dibromo-4-hydroxymethylphenoxy)-3-nitropyridine], for which the melting point is 209 to 213 °C. For the same compound, in the data set with HIV-1IIIB virus strain, a half-maximal response (EC50) required 0.253 µg/mL (≈ 0.486 µM) and the “SI(CC50/EC50)” value is on record as 145. In data set [1], it took 36.3 µg/mL (≈ 69.8 µM) to reach half-maximal cytotoxicity (CC50 at 4 days).

`Cc1cc(CNC2CC2)cc(C)c1Oc1ccc([N+](=O)[O-])c(Nc2ccc(C#N)cc2)n1` [Compound I-15, 2-(4-cyanophenylamino)-6-(2,6-dimethyl-4-(2-cyclopropylaminomethyl)phenoxy)-3-nitropyridine] came in with a melting point of 175 to 177 °C.

`Cc1cc(N)cc(C)c1Oc1ccc(N)c(Nc2ccc(C#N)cc2)n1` [Compound I-24, 3-amino-2-(4-cyanophenylamino)-6-(2,6-dimethyl-4-aminophenoxy)pyridine]: the melting point is 195 to 198 °C.

Turning to `Cc1cc(C#N)cc(C)c1Oc1ccc(N)c(Nc2ccc(C#N)cc2)n1` [Compound I-6, 3-amino-2-(4-cyanophenylamino)-6-(2,6-dimethyl-4-cyanophenoxy)pyridine], in the data set on HIV-1IIIB virus strain, the EC50 was 0.0005 µg/mL (≈ 0.00141 µM) and the “SI(CC50/EC50)” value is 22,560. In addition, the midpoint of cytotoxicity in data set [1], the CC50 at 4 days, lay at 11.3 µg/mL (≈ 31.7 µM).

For the compound `C#Cc1cc(C)c(Oc2ccc([N+](=O)[O-])c(Nc3ccc(C#N)cc3)n2)c(C)c1` [Compound I-22, 2-(4-cyanophenylamino)-6-(2,6-dimethyl-4-ethynylphenoxy)-3-nitropyridine], the melting point lay within 186 to 188 °C. In addition, in the data set with HIV-1IIIB virus strain, a half-maximal response (EC50) required 0.26 µg/mL (≈ 0.676 µM) and the “SI(CC50/EC50)” value worked out at 256. The compound further yielded a cytotoxic concentration (CC50) at 4 days in data set [1] of 66.7 µg/mL (≈ 173 µM).

`C=CCc1cc(C)c(Oc2ccc(N)c(Nc3ccc(C#N)cc3)n2)c(C)c1` [Compound I-13, 3-amino-2-(4-cyanophenylamino)-6-(2,6-dimethyl-4-allylphenoxy)pyridine] yielded a melting point of 150 to 152 °C. In the data set on HIV-1IIIB virus strain, the response was half-maximal at 0.09 µg/mL (≈ 0.243 µM) (EC50) and the “SI(CC50/EC50)” value is 24. In data set [1], the CC50 at 4 days came out at 2.13 µg/mL (≈ 5.75 µM).

As to `Cc1cc(C=CC#N)cc(C)c1Oc1ccc([N+](=O)[O-])c(Nc2ccc(C#N)cc2)n1` [Compound I-5, 2-(4-cyanophenylamino)-6-(2,6-dimethyl-4-cyanovinylphenoxy)-3-nitropyridine], in the data set on HIV-1IIIB virus strain, the EC50 is 0.005 µg/mL (≈ 0.0122 µM) and the “SI(CC50/EC50)” value is reported as 4,956. The same compound registered a CC50 at 4 days in data set [1] of 24.8 µg/mL (≈ 60.2 µM).

Compound `N#Cc1ccc(Nc2nc(Oc3c(Br)cc(Br)cc3Br)ccc2[N+](=O)[O-])cc1` [Compound I-26, 2-(4-cyanophenylamino)-6-(2,4,6-tribromophenoxy)-3-nitropyridine] registered a melting point of 188 to 191 °C. In the data set on HIV-1IIIB virus strain, a half-maximal effect (EC50) was put at 0.179 µg/mL (≈ 0.315 µM) and the “SI(CC50/EC50)” value amounted to 151. In data set [1], this compound came in with a CC50 at 4 days of 27 µg/mL (≈ 47.4 µM).

As to `Cc1cc(C=CC#N)cc(C)c1Oc1ccc(N)c(Nc2ccc(C#N)cc2)n1` [Compound I-10, 3-amino-2-(4-cyanophenylamino)-6-(2,6-dimethyl-4-cyanovinylphenoxy)pyridine], in the data set with HIV-1IIIB virus strain, a half-maximal effect (EC50) was put at 0.0042 µg/mL (≈ 0.011 µM) and the “SI(CC50/EC50)” value is 6,656. It took 27.9 µg/mL (≈ 73.3 µM) to reach half-maximal cytotoxicity in data set [1] (CC50 at 4 days).

For `C#Cc1cc(C)c(Oc2ccc(N)c(Nc3ccc(C#N)cc3)n2)c(C)c1` [Compound I-23, 3-amino-2-(4-cyanophenylamino)-6-(2,6-dimethyl-4-ethynylphenoxy)pyridine], the melting point fell in the range of 79 to 82 °C. Also, in the data set on HIV-1IIIB virus strain, the EC50 amounted to 0.15 µg/mL (≈ 0.423 µM) and the “SI(CC50/EC50)” value stood at 19. The compound further registered a half-maximal cytotoxic concentration (CC50) at 4 days in data set [1] of 2.92 µg/mL (≈ 8.24 µM).

As to `Cc1cc(C)c(Oc2ccc([N+](=O)[O-])c(Nc3ccc(C#N)cc3)n2)c(C)c1` [Compound I-3, 2-(4-cyanophenylamino)-6-(2,4,6-trimethylphenoxy)-3-nitropyridine], in the data set with HIV-1IIIB virus strain, a half-maximal effect (EC50) was put at 0.118 µg/mL (≈ 0.315 µM) and the “SI(CC50/EC50)” value is given as 4,264. This compound displayed a CC50 at 4 days in data set [1] of 503 µg/mL (≈ 1340 µM).

`N#Cc1ccc(Nc2nc(Oc3c(F)cccc3F)ccc2[N+](=O)[O-])cc1` [Compound I-29, 2-(4-cyanophenylamino)-6-(2,6-difluorophenoxy)-3-nitropyridine] displayed a melting point of 234 to 236 °C. Also, in the data set on HIV-1IIIB virus strain, the EC50 was determined as 15.9 µg/mL (≈ 43.2 µM) and the “SI(CC50/EC50)” value amounted to 2. The CC50 at 4 days in data set [1] turned out to be 39.7 µg/mL (≈ 108 µM).

`Cc1cc(Br)cc(C)c1Oc1ccc(N)c(Nc2ccc(C#N)cc2)n1` [Compound I-12, 3-amino-2-(4-cyanophenylamino)-6-(2,6-dimethyl-4-bromophenoxy)pyridine] yielded a melting point of 190 to 193 °C. Besides, in the data set with HIV-1IIIB virus strain, the concentration giving a half-maximal response (EC50) was 0.021 µg/mL (≈ 0.0513 µM) and the “SI(CC50/EC50)” value worked out at 259. The compound also displayed a CC50 at 4 days in data set [1] of 5.44 µg/mL (≈ 13.3 µM).

Take `Cc1cc(I)cc(C)c1Oc1ccc(N)c(Nc2ccc(C#N)cc2)n1` [Compound I-25, 3-amino-2-(4-cyanophenylamino)-6-(2,6-dimethyl-4-iodophenoxy)pyridine]: in the data set on HIV-1IIIB virus strain, the EC50 turned out to be 0.036 µg/mL (≈ 0.0789 µM) and the “SI(CC50/EC50)” value is 298. Besides, in data set [1], the half-maximal cytotoxic concentration (CC50) at 4 days worked out at 10.7 µg/mL (≈ 23.5 µM).

`Cc1cc(C#CC(C)(C)O)cc(C)c1Oc1ccc([N+](=O)[O-])c(Nc2ccc(C#N)cc2)n1` [Compound I-18, 2-(4-cyanophenylamino)-6-(2,6-dimethyl-4-(3-methyl-3-hydroxy-1-butynyl)phenoxy)-3-nitropyridine] showed a melting point of 114 to 116 °C.

Compound `Cc1cc([N+](=O)[O-])cc(C)c1Oc1ccc([N+](=O)[O-])c(Nc2ccc(C#N)cc2)n1` came in with a melting point of 250 to 252 °C.

As to `C=CCc1cc(C)c(Oc2ccc([N+](=O)[O-])c(Nc3ccc(C#N)cc3)n2)c(C)c1` [Compound I-9, 2-(4-cyanophenylamino)-6-(2,6-dimethyl-4-allylphenoxy)-3-nitropyridine], in the data set with HIV-1IIIB virus strain, the EC50 was 0.109 µg/mL (≈ 0.272 µM) and the “SI(CC50/EC50)” value is recorded as above 917. Also, in data set [1], the CC50 at 4 days was above 100 µg/mL.

Turning to `Cc1cc(C#CC2CC2)cc(C)c1Oc1ccc([N+](=O)[O-])c(Nc2ccc(C#N)cc2)n1` [Compound I-20, 2-(4-cyanophenylamino)-6-(2,6-dimethyl-4-(cyclopropylethynyl)phenoxy)-3-nitropyridine], the melting point was in the range of 188 to 192 °C.

For orientation: melting point means the temperature, or range, at which the solid turns liquid. Usually EC50 stands for the concentration giving half of the maximal effect. A low value points to an effect from little substance. What is called CC50 is the concentration giving 50% cytotoxicity.
